Broadly, the pIC50 is the negative decadic logarithm of the IC50, by convention in mol/L.

Experimental findings from patent US11091478B2 (Fochon Pharmaceuticals, Ltd., priority 2017, dated 2021) are described below.

Assay [1] concerns DOHH2 cells. The assay is described as follows: Cell proliferation assay (MTS), DOHH2 cells, 120 h. It is filed as cell-based. As to conditions: Homo sapiens, DOHH-2, 120 h. Put shortly:
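RS4;11 and DOHH2 cells at 5000 cells/well in RPMI-1640 with 10% FBS were treated with compound at 1.5–10000 nM final, nine points, at 37 °C, 5% CO2. Exposure was 72 h for RS4;11 and 120 h for DOHH2. MTS was added for 2 h, absorbance read at 490/650 nm, and IC50 calculated.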

The subject of assay [2] is RS4;11 cells. Nature of the assay: Cell proliferation assay (MTS), RS4;11 cells, 72 h. Conditions: Homo sapiens, RS4-11, 72 h. It is filed as cell-based. The text has this:
Cell Proliferation Assays
MTS testing kit was purchased from Promega. The RPMI-1640, Fetal bovine serum and Penicillin-Streptomycin were purchased from Gibco. Dimethyl sulfoxide (DMSO) was purchased from Sigma.
To investigate whether a compound is able to inhibit the activity of BCL-2 in cells, a mechanism-based assay using DOHH2 (DSMZ No.® ACC 47) and RS4;11 (ATCC® CRL-1873™) cell was developed. In this assay, inhibition of Bcl-2 was detected by the inhibition of DOHH2 cells proliferation. DOHH2 cells were cultured in culture flasks to 40-80% confluence in RPMI-1640 plus 10% fetal bovine serum. Cells were collected and plated onto 96-well plates at desired cell density (5000 cells/well). Plates were incubated overnight at 37° C., with 5% CO2 to adhere. Compounds were added to the plates, and the final compound concentrations were 10000, 3333, 1111, […], 124, 41, 14, 4.6 and 1.5 nM. Plates plated with DOHH2 or RS4;11 cells were placed at 37° C., with 5% CO2 for 120 h (DOHH2) or 72 h (RS4;11) respectively. 20 μl MTS/100 μl medium mixture solution were added to each well and incubate the plates for exactly 2 hours. The reaction was stopped by adding 25 μl 10% SDS per well. Measure absorbance at 490 nm and 650 nm (reference wavelength). IC50 was calculated using GraphPad Prism 5.0.
Select compounds prepared as described above were assayed according to the biological procedures described herein.

pIC50: −log10 of the molar value.

With `COC(=O)C[C@@H]1Cc2cc(S(=O)(=O)NC(=O)c3ccc(N4CCN(CC5=C(c6ccc(Cl)cc6)CC(C)(C)CC5)CC4)cc3Oc3cnc4[nH]ccc4c3)cc([N+](=O)[O-])c2N1` [Example 1-22, methyl (S)-2-(5-(N-(2-((1H-pyrrolo[2,3-b]pyridin-5-yl)oxy)-4-(4-((4′-chloro-5,5-dimethyl-3,4,5,6-tetrahydro-[1,1′-biphenyl]-2-yl)methyl)piperazin-1-yl)benzoyl)sulfamoyl)-7-nitro-indolin-2-yl)acetate], the pIC50 is 6.76 in assay [1] and 7.33 in assay [2].
In the case of `CN(C)C(=O)C[C@@H]1Cc2cc(S(=O)(=O)NC(=O)c3ccc(N4CCN(CC5=C(c6ccc(Cl)cc6)CC(C)(C)CC5)CC4)cc3Oc3cnc4[nH]ccc4c3)cc([N+](=O)[O-])c2N1` [Example 1-23, (S)-2-((1H-pyrrolo[2,3-b]pyridin-5-yl)oxy)-4-(4-((4′-chloro-5,5-dimethyl-3,4,5,6-tetra-hydro-[1,1′-biphenyl]-2-yl)methyl)piperazin-1-yl)-N-((2-(2-(dimethylamino)-2-oxoeth-yl)-7-nitroindolin-5-yl)sulfonyl)benzamide], the negative-log IC50 (pIC50) in assay [1] is 7.24; in assay [2], 7.70.
The corresponding values for `CC1(C)CCC(CN2CCN(c3ccc(C(=O)NS(=O)(=O)c4cc5c(c([N+](=O)[O-])c4)N[C@H](CC(=O)N4CCOCC4)C5)c(Oc4cnc5[nH]ccc5c4)c3)CC2)=C(c2ccc(Cl)cc2)C1` [Example 1-24, (S)-2-((1H-pyrrolo[2,3-b]pyridin-5-yl)oxy)-4-(4-((4′-chloro-5,5-dimethyl-3,4,5,6-tetra-hydro-[1,1′-biphenyl]-2-yl)methyl)piperazin-1-yl)-N-((2-(2-morpholino-2-oxoethyl)-7-nitroindolin-5-yl)sulfonyl)benzamide] are 7.39 and 7.14.
The corresponding values for `CN1CCN(C(=O)C[C@H]2Cc3cc(S(=O)(=O)NC(=O)c4ccc(N5CCN(CC6=C(c7ccc(Cl)cc7)CC(C)(C)CC6)CC5)cc4Oc4cnc5[nH]ccc5c4)cc([N+](=O)[O-])c3N2)CC1` [Example 1-25] are 8.22 and 8.22.
`CC1(C)CCC(CN2CCN(c3ccc(C(=O)NS(=O)(=O)c4cc5c(c([N+](=O)[O-])c4)N[C@@H](CC(=O)N4CCOCC4)C5)c(Oc4cnc5[nH]ccc5c4)c3)CC2)=C(c2ccc(Cl)cc2)C1` [Example 1-26, (R)-2-((1H-pyrrolo[2,3-b]pyridin-5-yl)oxy)-4-(4-((4′-chloro-5,5-dimethyl-3,4,5,6-tetra-hydro-[1,1′-biphenyl]-2-yl)methyl)piperazin-1-yl)-N-((2-(2-morpholino-2-oxoethyl)-7-nitroindolin-5-yl)sulfonyl)benzamide]: the negative-log IC50 (pIC50) in assay [1] was 6.99; in assay [2], 7.92.
The corresponding values for `CN1CCN(C[C@H]2COc3cc(S(=O)(=O)NC(=O)c4ccc(N5CCN(CC6=C(c7ccc(Cl)cc7)CC(C)(C)CC6)CC5)cc4Oc4cnc5[nH]ccc5c4)cc([N+](=O)[O-])c3N2)CC1` [Example 2-1, (S)-2-((1H-pyrrolo[2,3-b]pyridin-5-yl)oxy)-4-(4-((4′-chloro-5,5-dimethyl-3,4,5,6-tetrahydro-[1,1′-biphenyl]-2-yl)methyl)piperazin-1-yl)-N-((3-((4-methylpiperazin-1-yl)methyl)-5-nitro-3,4-dihydro-2H-benzo[b][1,4]oxazin-7-yl)sulfonyl)benzamide] are 8.22 and 9.00.
The corresponding values for `CC1(C)CCC(CN2CCN(c3ccc(C(=O)NS(=O)(=O)c4cc5c(c([N+](=O)[O-])c4)N[C@H](CCN4CCOCC4)CO5)c(Oc4cnc5[nH]ccc5c4)c3)CC2)=C(c2ccc(Cl)cc2)C1` [Example 2-2] are 8.10 and 8.70.
Take `CC1(C)CCC(CN2CCN(c3ccc(C(=O)NS(=O)(=O)c4cc5c(c([N+](=O)[O-])c4)N[C@H](CN4CCOCC4)CO5)c(Oc4cnc5[nH]ccc5c4)c3)CC2)=C(c2ccc(Cl)cc2)C1` [Example 2-5, (R)-2-((1H-pyrrolo[2,3-b]pyridin-5-yl)oxy)-4-(4-((4′-chloro-5,5-dimethyl-3,4,5,6-tetra-hydro-[1,1′-biphenyl]-2-yl)methyl)piperazin-1-yl)-N-((3-(morpholinomethyl)-5-nitro-3,4-dihydro-2H-benzo[b][1,4]oxazin-7-yl)sulfonyl)benzamide]: the pIC50 is 7.92 in assay [1] and 8.52 in assay [2].
As to `CC1(C)CCC(CN2CCN(c3ccc(C(=O)NS(=O)(=O)c4cc5c(c([N+](=O)[O-])c4)N[C@H](CN4CCC(C)(O)CC4)CO5)c(Oc4cnc5[nH]ccc5c4)c3)CC2)=C(c2ccc(Cl)cc2)C1` [Example 2-6, (R)-2-((1H-pyrrolo[2,3-b]pyridin-5-yl)oxy)-4-(4-((4′-chloro-5,5-dimethyl-3,4,5,6-tetra-hydro-[1,1′-biphenyl]-2-yl)methyl)piperazin-1-yl)-N-((3-((4-hydroxy-4-methylpiperdin-1-yl)methyl)-5-nitro-3,4-dihydro-2H-benzo[b][1,4]oxazin-7-yl)sulfonyl)benzamide], the figures for the pIC50 in assay [1] and in assay [2] were 7.74 and 8.70, respectively.
As to `CN(C)C[C@@H]1COc2cc(S(=O)(=O)NC(=O)c3ccc(N4CCN(CC5=C(c6ccc(Cl)cc6)CC(C)(C)CC5)CC4)cc3Oc3cnc4[nH]ccc4c3)cc([N+](=O)[O-])c2N1` [Example 2-7, (R)-2-((1H-pyrrolo[2,3-b]pyridin-5-yl)oxy)-4-(4-((4′-chloro-5,5-dimethyl-3,4,5,6-tetra-hydro-[1,1′-biphenyl]-2-yl)methyl)piperazin-1-yl)-N-((3-((dimethylamino)methyl)-5-nitro-3,4-dihydro-2H-benzo[b][1,4]oxazin-7-yl)sulfonyl)benzamide], the negative logarithm of the IC50 (pIC50) in assay [1] is 7.02; in assay [2] it was 7.14.
As for `CC1(C)CCC(CN2CCN(c3ccc(C(=O)NS(=O)(=O)c4cc5c(c([N+](=O)[O-])c4)N[C@H](CO)CO5)c(Oc4cnc5[nH]ccc5c4)c3)CC2)=C(c2ccc(Cl)cc2)C1` [Example 2-8, (R)-2-((1H-pyrrolo[2,3-b]pyridin-5-yl)oxy)-4-(4-((4′-chloro-5,5-dimethyl-3,4,5,6-tetra-hydro-[1,1′-biphenyl]-2-yl)methyl)piperazin-1-yl)-N-((3-(hydroxymethyl)-5-nitro-3,4-dihydro-2H-benzo[b][1,4]oxazin-7-yl)sulfonyl)benzamide], the pIC50 is 7.17 in assay [1] and 7.85 in assay [2].
With `CN1CCN(CC[C@H]2COc3cc(S(=O)(=O)NC(=O)c4ccc(N5CCN(CC6=C(c7ccc(Cl)cc7)CC(C)(C)CC6)CC5)cc4Oc4cnc5[nH]ccc5c4)cc([N+](=O)[O-])c3N2)CC1` [Example 2-9, (S)-2-((1H-pyrrolo[2,3-b]pyridin-5-yl)oxy)-4-(4-((4′-chloro-5,5-dimethyl-3,4,5,6-tetra-hydro-[1,1′-biphenyl]-2-yl)methyl)piperazin-1-yl)-N-((3-(2-(4-methylpiperazin-1-yl)eth-yl)-5-nitro-3,4-dihydro-2H-benzo[b][1,4]oxazin-7-yl)sulfonyl)benzamide], the negative logarithm of the IC50 (pIC50) in assay [1] was 7.48; in assay [2] it was 8.00.
